Measurements published in patent US8278473B2, “Alpha, beta-unsaturated imidate compound and pesticidal composition containing the same” (Sumitomo Chemical Company, Limited, priority 2007, dated 2012).

test system: Haemaphysalis longicornis; assay: Test Example 10: Haemaphysalis longicornis, treated filter paper pouch; format: in vivo; details: 0.5 mg compound on filter paper 5×10 cm; non-blood sucking nymphal ticks; after 2 days
Procedure: In 1 mL of acetone, 0.5 mg of any one of the present compounds 1 to 48 was dissolved, and the solution was spread uniformly on one side of a filter paper (TOYO No. 2; 5×10 cm). After dried, the filter paper was folded into two, and the sides were clipped to make a pouch. Into the pouch, tested ticks (Haemaphysalis longicornis, non-blood sucking nymphal ticks, 10 ticks in a group) were placed. The pouch was clipped and sealed. After 2 days, the number of dead ticks was counted.

SMILES | death rate
COc1ccccc1OC=C(C)C(=Nc1ccccc1)Oc1ccccc1 [Compound 232, phenyl 3-(2-methoxyphenyloxy)-2-methyl-N-phenyl-2-propenimidate] | 100%
COc1ccccc1OC=C(C)C(=Nc1ccc(C)cc1)Oc1cccc(C)c1 [Compound 240, 3-methylphenyl 3-(2-methoxyphenyloxy)-2-methyl-N-(4-methylphenyl)-2-propenimidate] | 100%
CC(=COc1cccc(C)c1)C(=Nc1ccccc1)Oc1cccc(C(C)C)c1 [Compound 178, 3-isopropylphenyl 2-methyl-3-(3-methylphenyloxy)-N-phenyl-2-propenimidate] | 100%
CC(=COc1ccc(C)cc1)C(=Nc1ccccc1)Oc1ccccc1C [Compound 194, 2-methylphenyl 2-methyl-3-(4-methylphenyloxy)-N-phenyl-2-propenimidate] | 100%
COc1ccccc1OC=C(C)C(=Nc1ccccc1)Oc1cc(C)cc(C)c1 [Compound 238, 3,5-dimethylphenyl 3-(2-methoxyphenyloxy)-2-methyl-N-phenyl-2-propenimidate] | 100%
COc1ccc(OC=C(C)C(=Nc2ccc(C)cc2)Oc2cccc(OC)c2)cc1 [Compound 273, 3-methoxyphenyl 3-(4-methoxyphenyloxy)-2-methyl-N-(4-methylphenyl)-2-propenimidate] | 100%
CC(=COc1ccc(C)cc1)C(=Nc1ccc(C)cc1)Oc1cccc(C)c1 [Compound 210, 3-methylphenyl 2-methyl-N-(4-methylphenyl)-3-(4-methylphenyloxy)-2-propenimidate] | 100%
CC(=COc1ccc(C)cc1)C(=Nc1ccccc1)Oc1cccc(C(F)(F)F)c1 [Compound 206, 3-(trifluoromethyl)phenyl 2-methyl-3-(4-methylphenyloxy)-N-phenyl-2-propenimidate] | 100%
COc1cccc(OC(=Nc2ccccc2)C(C)=COc2ccccc2OC)c1 [Compound 236, 3-methoxyphenyl 3-(2-methoxyphenyloxy)-2-methyl-N-phenyl-2-propenimidate] | 100%
CCOc1cccc(OC(=Nc2ccc(C)cc2)C(C)=COc2ccccc2OC)c1 [Compound 243, 3-ethoxyphenyl 3-(2-methoxyphenyloxy)-2-methyl-N-(4-methylphenyl)-2-propenimidate] | 100%
CC(=COc1ccc(C)cc1)C(=Nc1ccccc1)Oc1ccc(Cl)cc1 [Compound 202, 4-chlorophenyl 2-methyl-3-(4-methylphenyloxy)-N-phenyl-2-propenimidate] | 100%
COc1ccc(N=C(Oc2cc(C)cc(C)c2)C(C)=COc2ccc(OC)cc2)cc1 [Compound 281, 3,5-dimethylphenyl N-(4-methoxyphenyl)-3-(4-methoxyphenyloxy)-2-methyl-2-propenimidate] | 100%
CC(=COc1ccc(Cl)cc1)C(=Nc1ccccc1)Oc1ccccc1 [Compound 231, phenyl 3-(4-chlorophenyloxy)-2-methyl-N-phenyl-2-propenimidate] | 100%
CCC(=COc1ccccc1)C(=Nc1ccccc1)Oc1ccccc1 [Compound 301, phenyl 2-ethyl-3-phenoxy-N-phenyl-2-propenimidate] | 100%
COc1ccc(OC=C(C)C(=Nc2ccc(C)cc2)Oc2cccc(C)c2)cc1 [Compound 270, 3-methylphenyl 3-(4-methoxyphenyloxy)-2-methyl-N-(4-methylphenyl)-2-propenimidate] | 100%
CCc1cccc(OC(=Nc2ccccc2)C(C)=COc2cccc(C)c2)c1 [Compound 177, 3-ethylphenyl 2-methyl-3-(3-methylphenyloxy)-N-phenyl-2-propenimidate] | 100%
CCc1cccc(OC(=Nc2ccc(C)cc2)C(C)=COc2ccc(OC)cc2)c1 [Compound 272, 3-ethylphenyl 3-(4-methoxyphenyloxy)-2-methyl-N-(4-methylphenyl)-2-propenimidate] | 100%
CCC(=COc1ccccc1)C(=Nc1ccccc1)Sc1ccccc1 [Compound 300, phenyl 2-ethyl-3-phenoxy-N-phenyl-2-propenimidothioate] | 100%
CC(=COc1ccc(Oc2ccccc2)cc1)C(=Nc1ccccc1)Oc1ccccc1 [Compound 291, phenyl 2-methyl-3-(4-phenoxyphenyloxy)-N-phenyl-2-propenimidate] | 100%
CC(=COc1cccc(C)c1)C(=Nc1ccc(C)cc1)Oc1ccccc1 [Compound 183, phenyl 2-methyl-N-(4-methylphenyl)-3-(3-methylphenyloxy)-2-propenimidate] | 100%
